Results published in ChEMBL document CHEMBL1201862, “PubChem BioAssay data set” (2004).
Active and inactive are the calls of the source.

target: cAMP-dependent protein kinase catalytic subunit alpha (Homo sapiens, UniProt P17612); format: functional

Row | SMILES | Ki
1 | NC(COc1cncc(-c2ccc3c(c2)C(=Cc2ccc[nH]2)C(=O)N3)c1)Cc1ccccc1 (stereo not given) | 0.00126 µM (active)
2 | O=C1Cc2cc(-c3ccccc3)cnc2N1 | > 50.1 µM (inactive)
3 | O=C1Nc2cc(-c3ccc(O)cc3)ccc2C1=Cc1ccc[nH]1 | > 1.26 µM (inactive)

target: T1, Mitogen-activated protein kinase kinase kinase kinase 2 (Homo sapiens, UniProt Q12851); format: functional;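 note: measured as one member of a kinome-wide kinase panel, with MAP4K2 as the panel entry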
T1 sequence (Q12851 whole entry): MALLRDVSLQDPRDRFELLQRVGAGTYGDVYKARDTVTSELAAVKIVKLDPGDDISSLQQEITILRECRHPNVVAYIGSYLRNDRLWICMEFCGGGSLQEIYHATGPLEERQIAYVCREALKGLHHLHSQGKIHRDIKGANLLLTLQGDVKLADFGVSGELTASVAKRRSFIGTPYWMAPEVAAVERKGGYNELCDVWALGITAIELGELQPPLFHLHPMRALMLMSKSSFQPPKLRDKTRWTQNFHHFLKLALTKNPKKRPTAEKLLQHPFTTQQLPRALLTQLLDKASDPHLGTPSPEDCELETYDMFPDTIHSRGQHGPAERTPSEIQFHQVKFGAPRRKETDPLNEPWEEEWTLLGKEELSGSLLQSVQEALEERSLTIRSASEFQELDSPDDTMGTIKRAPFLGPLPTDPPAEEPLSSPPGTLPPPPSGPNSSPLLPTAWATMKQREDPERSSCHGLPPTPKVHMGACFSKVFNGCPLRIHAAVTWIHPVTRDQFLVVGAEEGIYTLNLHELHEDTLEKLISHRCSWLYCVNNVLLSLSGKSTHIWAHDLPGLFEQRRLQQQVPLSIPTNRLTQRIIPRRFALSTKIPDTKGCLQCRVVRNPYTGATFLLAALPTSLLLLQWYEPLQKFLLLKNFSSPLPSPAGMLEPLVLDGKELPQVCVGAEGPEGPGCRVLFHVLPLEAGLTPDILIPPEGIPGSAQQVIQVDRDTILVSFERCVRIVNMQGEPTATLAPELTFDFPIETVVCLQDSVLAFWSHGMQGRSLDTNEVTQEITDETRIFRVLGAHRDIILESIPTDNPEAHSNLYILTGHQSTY

Row | SMILES | Ki
4 | NC(COc1cncc(-c2ccc3c(c2)C(=Cc2ccc[nH]2)C(=O)N3)c1)Cc1ccccc1 (stereo not given) | 0.0158 µM (active)
5 | O=C1Cc2cc(-c3ccccc3)cnc2N1 | 31.6 µM (active)
6 | O=C1Nc2cc(-c3ccc(O)cc3)ccc2C1=Cc1ccc[nH]1 | 0.0316 µM (active)

target: Serine/threonine-protein kinase pim-1 (Homo sapiens, UniProt P11309); format: functional
Sequence (P11309 whole entry): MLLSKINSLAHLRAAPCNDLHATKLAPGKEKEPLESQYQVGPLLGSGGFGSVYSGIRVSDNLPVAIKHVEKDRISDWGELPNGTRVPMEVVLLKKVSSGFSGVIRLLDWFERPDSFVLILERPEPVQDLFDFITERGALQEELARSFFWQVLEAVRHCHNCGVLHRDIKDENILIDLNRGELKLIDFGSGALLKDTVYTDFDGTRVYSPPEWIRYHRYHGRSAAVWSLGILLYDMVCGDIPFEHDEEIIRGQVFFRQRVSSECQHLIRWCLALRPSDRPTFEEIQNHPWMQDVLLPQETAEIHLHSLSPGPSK

Row | SMILES | Ki
7 | NC(COc1cncc(-c2ccc3c(c2)C(=Cc2ccc[nH]2)C(=O)N3)c1)Cc1ccccc1 (stereo not given) | 0.631 µM (active)
8 | O=C1Cc2cc(-c3ccccc3)cnc2N1 | 50.1 µM (active)
9 | O=C1Nc2cc(-c3ccc(O)cc3)ccc2C1=Cc1ccc[nH]1 | 0.251 µM (active)

target: T2, Sentrin-specific protease 8 (Homo sapiens, UniProt Q96LD8); format: functional;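 note: luminescence read-out of SENP8 inhibition, dose-response confirmation following an ultra-high-throughput screen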
T2 sequence (Q96LD8 whole entry): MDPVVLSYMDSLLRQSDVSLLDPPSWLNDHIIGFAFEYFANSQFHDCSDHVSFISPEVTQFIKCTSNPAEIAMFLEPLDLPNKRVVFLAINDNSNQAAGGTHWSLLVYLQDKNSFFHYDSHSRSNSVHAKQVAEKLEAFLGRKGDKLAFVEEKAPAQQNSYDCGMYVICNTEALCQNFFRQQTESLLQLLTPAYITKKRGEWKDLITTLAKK

Row | SMILES | IC50
10 | O=C(NC1=C(Nc2ccc(F)cc2)C(=O)c2ccccc2C1=O)c1ccc(Cl)cc1 | 10.2 µM (active)
11 | CN(C)c1cc(N/N=C\c2ccccc2)nc(N(C)C)n1 | 18.8 µM (active)
12 | Oc1nc(Nc2ccc(F)cc2)cc2ccccc12 | 6.03 µM (active)

target: T3, Apoptotic protease-activating factor 1 (Homo sapiens, UniProt O14727); format: functional
T3 sequence (O14727 whole entry): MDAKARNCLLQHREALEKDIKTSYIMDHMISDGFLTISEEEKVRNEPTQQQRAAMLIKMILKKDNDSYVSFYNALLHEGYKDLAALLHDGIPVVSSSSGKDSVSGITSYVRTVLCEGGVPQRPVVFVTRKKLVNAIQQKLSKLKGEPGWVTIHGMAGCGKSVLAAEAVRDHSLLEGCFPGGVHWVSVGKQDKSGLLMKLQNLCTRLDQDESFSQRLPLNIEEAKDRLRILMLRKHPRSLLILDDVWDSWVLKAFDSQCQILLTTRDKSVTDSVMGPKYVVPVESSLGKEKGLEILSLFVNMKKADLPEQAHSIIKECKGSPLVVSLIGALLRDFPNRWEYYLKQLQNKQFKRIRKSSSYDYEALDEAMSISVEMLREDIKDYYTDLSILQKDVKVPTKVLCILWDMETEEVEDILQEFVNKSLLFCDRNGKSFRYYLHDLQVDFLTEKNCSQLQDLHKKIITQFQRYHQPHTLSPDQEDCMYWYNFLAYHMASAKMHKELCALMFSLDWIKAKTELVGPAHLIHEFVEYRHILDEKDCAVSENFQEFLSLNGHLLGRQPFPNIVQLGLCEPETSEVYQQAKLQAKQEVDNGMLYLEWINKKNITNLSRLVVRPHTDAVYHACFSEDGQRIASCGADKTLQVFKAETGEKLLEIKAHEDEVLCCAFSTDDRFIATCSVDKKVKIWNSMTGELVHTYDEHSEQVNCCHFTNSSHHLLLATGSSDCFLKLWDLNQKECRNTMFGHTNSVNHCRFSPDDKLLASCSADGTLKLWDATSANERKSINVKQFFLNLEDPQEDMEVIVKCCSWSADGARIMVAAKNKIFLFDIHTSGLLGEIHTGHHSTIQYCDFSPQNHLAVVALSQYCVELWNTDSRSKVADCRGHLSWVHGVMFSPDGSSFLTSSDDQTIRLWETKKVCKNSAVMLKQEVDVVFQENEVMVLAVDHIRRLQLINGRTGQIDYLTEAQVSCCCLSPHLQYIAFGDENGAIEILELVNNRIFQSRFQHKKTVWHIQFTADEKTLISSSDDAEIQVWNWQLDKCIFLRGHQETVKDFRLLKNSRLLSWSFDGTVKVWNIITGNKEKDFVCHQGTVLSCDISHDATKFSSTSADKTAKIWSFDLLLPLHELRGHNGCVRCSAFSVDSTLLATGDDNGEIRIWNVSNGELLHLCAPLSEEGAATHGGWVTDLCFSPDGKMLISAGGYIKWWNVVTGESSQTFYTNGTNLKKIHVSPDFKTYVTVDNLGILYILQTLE

Row | SMILES | IC50
13 | O=C(NC1=C(Nc2ccc(F)cc2)C(=O)c2ccccc2C1=O)c1ccc(Cl)cc1 | 16.2 µM (active)
14 | CN(C)c1cc(N/N=C\c2ccccc2)nc(N(C)C)n1 | 1.1 µM (active)
15 | CCN(CC)CCOc1ccc2c(c1)C(=NNC(=O)c1ccccn1)c1cc(OCCN(CC)CC)ccc1-2 | 10.2 µM (active)
16 | COc1cc2cc(NC(C)=O)cc(NCc3ccccc3)c2cc1OC | 20.7 µM (active)
17 | Oc1nc(Nc2ccc(F)cc2)cc2ccccc12 | 3.76 µM (active)

target: T4, Caspase-3 (Homo sapiens, UniProt P42574); format: functional;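 note: Dose-response selectivity test against caspase-3 for candidate inhibitors of sentrin-specific proteases (SENPs)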
T4 sequence (P42574 whole entry): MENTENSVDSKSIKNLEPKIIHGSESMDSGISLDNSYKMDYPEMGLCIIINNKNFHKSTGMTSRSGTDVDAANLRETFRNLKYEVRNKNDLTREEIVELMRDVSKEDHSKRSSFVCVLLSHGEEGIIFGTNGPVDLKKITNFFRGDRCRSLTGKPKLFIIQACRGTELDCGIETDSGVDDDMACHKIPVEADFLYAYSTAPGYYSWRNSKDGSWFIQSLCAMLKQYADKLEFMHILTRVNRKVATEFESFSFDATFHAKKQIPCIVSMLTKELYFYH

Row | SMILES | IC50
18 | O=C(NC1=C(Nc2ccc(F)cc2)C(=O)c2ccccc2C1=O)c1ccc(Cl)cc1 | 19 µM (active)
19 | CN(C)c1cc(N/N=C\c2ccccc2)nc(N(C)C)n1 | > 100 µM (inactive)
20 | Oc1nc(Nc2ccc(F)cc2)cc2ccccc12 | 4.77 µM (active)
